Measurements reported in paper PMC11189555, “Aryl amino acetamides prevent Plasmodium falciparum ring development via targeting the lipid-transfer protein PfSTART1” (Nature Communications, 2024).
Values joined by “and” are separate entries in the source; they are usually repeats but may differ in a detail not shown here. Equal values may be shown once. Read-outs that look alike come from different tables or passages of the source.

System: CR-N330K parasites
Test: Growth inhibition assay (72 h, LDH activity)
Format: cell-based, Plasmodium falciparum
Details: for inhibition at up to 5 µM: dilution point 5 of 10, read-out: Growth inhibition assay, NORMALISED
Experimental: Parasite growth assays with inhibitory compounds were performed as per[11] and are fully described in the Supplementary Information.
Molecular biology and transfection of P. falciparum: CRISPR method.
The full 5’ homology region of pfstart1 (either WT, N309K or N330K) was amplified from pPfSTART1-HA-2A-Neo-glmS with the same 5’ BglII primer and a new 3’ primer that replaced with PstI with SpeI and introduced a stop codon. The PCR product was then digested with BglII and SpeI and inserted into similarly digested p1.2 parasite vector2. The p1.2 vector had previously been inserted with a homology region amplified from the 3’ end of the pfstart1 gene (3’HB) to form a second homology block for double recombination. The primers used to amplify 3’HB are listed primers listed in […]
60 μg of p1.2-PfSTART1(WT/N309K/N330K) plasmid was linearised with KasI, precipitated in 3 M sodium acetate and ethanol (70% final concentration) overnight at -20°C. The DNA pellet was washed in cold 70% ethanol and resuspended in cytomix 3.
50 μ M of crRNA ( Table S 2) and 50 μM of tracRNA (Integrated DNA Technologies) were allowed to form a duplex (5 min at 95°C), and Cas9 enzyme (Integrated DNA Technologies) was added, and incubated for 20 min at room temperature 4. This crRNA -tracRNA -Cas9 mix was added to each DNA preparation and transfected to 3D7 ring parasites using the Bio -Rad Gene Pulser at 310 V and 950 μF.
Parasites containing the transfected DNA were selected using 2.5 nM WR99210 (Jacobus). Parasites lines were cloned using limiting dilution. Correct integration was tested by PCR (using primer START_5’UTR.F and START_Int.R1 , Table S 2), and sequencing was done using the primers START_3F and START_Int.R2 (Table S 2).
Growth inhibition assays. Synchronised ring-stage parasites (0.3-0.6% parasitemia, 2% haematocrit) were grown for 72 h in a serial-dilution of the compound under […]
and compound 4. Note that M-833 was first purchased from MolPort (MolPort -002-267-916) then made in-house at WEHI: the differences observed in EC50s across experiments are attributed to the different batches of M -833. For some experiments, 0, 0.25 or 2.5 mM of glucosamine (GlcN) was also added. Experiments were set up in technical duplicates or triplicates. Following a freeze -thaw cycle, lactate dehydrogenase (LDH) activity was assessed as an indicator of parasite growt h 5. 30 μL of parasite culture was incubated for 30 min in the dark with 75 μL Malstat mixture (0.1 M Tris pH 9.0, 20 g/L lactic acid, pH 7.5, 0.2% Triton-X100, 0.5 g/L acetylpyridine adenine dinucleotide (APAD, Sigma), 200 μg/mL nitroblue tetrazolium (NBT; Sigma), 1 μg/mL phenozine ethosulfate (PES; Sigma)). Absorbance was then measured at 650 nm, transformed using the formula below, plotted against the logarithm of the concentrations, and a non-linear regression (log(inhibitor) vs. response, variable slope) was calculated using GraphPad Prism to assess the half-inhibitory […]
Growth inhibition % = (1 − average(sample)− average(uRBC)) ∗ 100 […]
The DMSO samples were also used to assess growth of parasite in the presence of 0.25 and 2.5 mM GlcN (normalised by DMSO in 0 mM GlcN).
Egress, invasion & recovery assay. To measure egress, invasion and follow up recovery in the presence of different compounds, we adapted the method developed in6, using Hyp1-Nluc parasites7. These parasites episomally express the exported PEXEL protein Hyp1 (PF3D7_0113300) tagged with a NanoLuc luciferase (NLuc) and were selected with 2.5 nM WR99210 (Jacobus). Highly synchronised schizonts were obtained using ML10 (LifeArc) and sorbitol synchronisation, and Percoll-purified (the culture was gently layered over 67% Percoll (Cytiva) in RPMI, and centrifuged for 15 min at 1500 g and the schizont layer was collected and washed). In a 96-well plate, […]

With `CC(C)(Nc1ccc(Cl)c(S(=O)(=O)N2CCOCC2)c1)C(=O)Nc1ccc(F)c(Cl)c1` [W-991] the “NORMALISED (growth inhibition, LDH absorbance)” value (2.5 mM GlcN, dilution point 9 of 10 from starting concentration 5 uM) was 10.3592 and 12.8289, the “fold less susceptible than the 3D7 and CR-WT controls” value (Fig 4C) was “around 600 fold” and the “fold sensitised on PfSTART1 knock-down with GlcN” value (Fig 4C) was 7.3 fold. The EC50 (Fig 4C, 0 mM GlcN, n = 3, read-out: EC50 W-991 (95% confidence interval)) was less than 700 nM, the inhibition at 5 µM (Plasmodium falciparum, 0 mM GlcN, dilution point 1 of 10, starting concentration 5 uM, read-out: NORMALISED (growth inhibition, LDH absorbance)) was 84.5% and the inhibition (Plasmodium falciparum, 0 mM GlcN, starting concentration 5 uM, dilution point 1 of 10, read-out: Growth inhibition assay, NORMALISED) was 90.1%. For the same compound, the inhibition (Plasmodium falciparum, 0 mM GlcN, starting concentration 5 uM, dilution point 3 of 10, read-out: Growth inhibition assay, NORMALISED) was 50.4%, the inhibition (Plasmodium falciparum, 0 mM GlcN, starting concentration 5 uM, dilution point 4 of 10, read-out: Growth inhibition assay, NORMALISED) was 20.2% and the inhibition at up to 5 µM (Plasmodium falciparum, 0 mM GlcN, starting concentration 5 uM) was 14.5%. It also gave an inhibition (Plasmodium falciparum, 0 mM GlcN, starting concentration 5 uM, dilution point 6 of 10, read-out: Growth inhibition assay, NORMALISED) of 9.02%, an inhibition (Plasmodium falciparum, 0 mM GlcN, starting concentration 5 uM, dilution point 7 of 10, read-out: Growth inhibition assay, NORMALISED) of 9.74% and an inhibition (Plasmodium falciparum, 0 mM GlcN, starting concentration 5 uM, dilution point 8 of 10, read-out: Growth inhibition assay, NORMALISED) of 9.24%. For the same compound, the inhibition (Plasmodium falciparum, 0 mM GlcN, starting concentration 5 uM, dilution point 9 of 10, read-out: Growth inhibition assay, NORMALISED) was 12.9%, the inhibition (Plasmodium falciparum, 0 mM GlcN, starting concentration 5 uM, dilution point 10 of 10, read-out: Growth inhibition assay, NORMALISED) was 5.95% and the inhibition at 5 µM (Plasmodium falciparum, 0.25 mM GlcN, dilution point 1 of 10, starting concentration 5 uM, read-out: NORMALISED (growth inhibition, LDH absorbance)) was 86.4%. For the same compound, the inhibition at 5 µM (Plasmodium falciparum, 0.25 mM GlcN, starting concentration 5 uM, dilution point 1 of 10, read-out: Growth inhibition assay, NORMALISED) was 87.6%, the inhibition at 5 µM (Plasmodium falciparum, 0.25 mM GlcN, starting concentration 5 uM, dilution point 2 of 10, read-out: Growth inhibition assay, NORMALISED) was 84.3% and the inhibition at 5 µM (Plasmodium falciparum, 0.25 mM GlcN, starting concentration 5 uM, dilution point 3 of 10, read-out: Growth inhibition assay, NORMALISED) was 66.9%. For the same compound, the inhibition at 5 µM (Plasmodium falciparum, 0.25 mM GlcN, starting concentration 5 uM, dilution point 4 of 10, read-out: Growth inhibition assay, NORMALISED) was 35.9%, the inhibition at 5 µM (Plasmodium falciparum, 0.25 mM GlcN, starting concentration 5 uM, dilution point 6 of 10, read-out: Growth inhibition assay, NORMALISED) was 2.77% and the inhibition at 5 µM (Plasmodium falciparum, 0.25 mM GlcN, starting concentration 5 uM, dilution point 7 of 10, read-out: Growth inhibition assay, NORMALISED) was 9.45%. The inhibition at 5 µM (Plasmodium falciparum, 0.25 mM GlcN, starting concentration 5 uM, dilution point 8 of 10, read-out: Growth inhibition assay, NORMALISED) was 11.2%, the inhibition at 5 µM (Plasmodium falciparum, 0.25 mM GlcN, starting concentration 5 uM, dilution point 9 of 10, read-out: Growth inhibition assay, NORMALISED) was 16.2% and the inhibition at 5 µM (Plasmodium falciparum, 0.25 mM GlcN, starting concentration 5 uM, dilution point 10 of 10, read-out: Growth inhibition assay, NORMALISED) was 6.13%. It also gave an inhibition (Plasmodium falciparum, 2.5 mM GlcN, starting concentration 5 uM, dilution point 1 of 10, read-out: Growth inhibition assay, NORMALISED) of 33.9%, an inhibition (Plasmodium falciparum, 2.5 mM GlcN, starting concentration 5 uM, dilution point 2 of 10, read-out: Growth inhibition assay, NORMALISED) of 33.5% and an inhibition (Plasmodium falciparum, 2.5 mM GlcN, starting concentration 5 uM, dilution point 3 of 10, read-out: Growth inhibition assay, NORMALISED) of 23.8%. It also gave an inhibition (Plasmodium falciparum, 2.5 mM GlcN, starting concentration 5 uM, dilution point 4 of 10, read-out: Growth inhibition assay, NORMALISED) of 10.8%, an inhibition at up to 5 µM (Plasmodium falciparum, 2.5 mM GlcN, starting concentration 5 uM) of -13.2% and an inhibition (Plasmodium falciparum, 2.5 mM GlcN, starting concentration 5 uM, dilution point 6 of 10, read-out: Growth inhibition assay, NORMALISED) of -23.5%. For the same compound, the inhibition (Plasmodium falciparum, 2.5 mM GlcN, starting concentration 5 uM, dilution point 7 of 10, read-out: Growth inhibition assay, NORMALISED) was -34.6%, the inhibition (Plasmodium falciparum, 2.5 mM GlcN, starting concentration 5 uM, dilution point 8 of 10, read-out: Growth inhibition assay, NORMALISED) was -22.6% and the inhibition (Plasmodium falciparum, 2.5 mM GlcN, starting concentration 5 uM, dilution point 9 of 10, read-out: Growth inhibition assay, NORMALISED) was -27.3%. It also gave an inhibition (Plasmodium falciparum, 2.5 mM GlcN, starting concentration 5 uM, dilution point 10 of 10, read-out: Growth inhibition assay, NORMALISED) of -18.7%, an EC50 (Plasmodium falciparum, read-out: EC50 W-991 (95% confidence interval), Fig 4C, 0 mM GlcN, n = 3) of 623 nM and an EC50 (Plasmodium falciparum, read-out: EC50 W-991 (95% confidence interval), Fig 4C, 0.25 mM GlcN, n = 3) of 336 nM. The EC50 (Plasmodium falciparum, read-out: EC50 W-991 (95% confidence interval), Fig 4C, 2.5 mM GlcN, n = 3) was 85.3 nM and the EC50 (read-out: EC50 W-991 (95% confidence interval), Fig 4C, 0 mM GlcN, n = 3) was 623 nM.
